Patent publication US7473790B2 (Pfizer Inc., priority 2003, dated 2009)

What follows are compounds tested against T1, HCV polymerase (Hepatitis C virus genotype 1b, UniProt P26663) (assay: HCV polymerase primer/template-directed transcription assay (32P-GTP incorporation, filter binding)). Settings: recombinant HCV polymerase; 30 minutes at 30° C.; concentration giving 50% inhibition of polymerase-directed transcription; read-out: IC50.
T1 construct: 2.5 pmoles (0.15 μg) HCV polymerase protein in a final volume of 75 μL
T1 sequence (P26663 2420-3010): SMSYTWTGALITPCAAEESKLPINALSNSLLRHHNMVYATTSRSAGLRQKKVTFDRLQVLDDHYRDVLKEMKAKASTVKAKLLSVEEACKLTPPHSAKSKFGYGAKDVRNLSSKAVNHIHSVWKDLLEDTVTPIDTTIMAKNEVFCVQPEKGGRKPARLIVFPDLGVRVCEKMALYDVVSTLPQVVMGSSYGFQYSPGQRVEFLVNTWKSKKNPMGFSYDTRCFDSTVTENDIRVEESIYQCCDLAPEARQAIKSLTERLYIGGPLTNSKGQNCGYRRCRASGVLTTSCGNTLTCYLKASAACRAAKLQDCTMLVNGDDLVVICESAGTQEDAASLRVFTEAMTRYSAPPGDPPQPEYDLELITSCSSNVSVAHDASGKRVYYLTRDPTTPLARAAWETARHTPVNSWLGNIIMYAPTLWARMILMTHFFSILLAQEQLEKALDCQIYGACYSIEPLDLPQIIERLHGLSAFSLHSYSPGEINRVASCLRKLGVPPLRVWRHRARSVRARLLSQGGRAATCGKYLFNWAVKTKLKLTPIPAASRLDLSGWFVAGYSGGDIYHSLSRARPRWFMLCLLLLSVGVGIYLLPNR
Type: biochemical
In short: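 IC50s come from triplicate cpm, refit with an enzyme-concentration (30 nM) correction when under 200 nM. Reactions ran 30 min at 30° C in Tris pH 7.2 with MgCl2, 1 μM GTP spiked with α-32P-GTP, biotin-dG12 primer and poly(rC)300 template, with 1% DMSO. Incorporated label was collected on DE filtermats and counted.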

Compound	IC50
Cn1c(CC2=C(O)CC(CCc3ccc(C(C)(C)C#N)c(F)c3)(C3CCCC3)OC2=O)nc2cc(Cl)ccc21 (centres unmarked) [A(98), 2-[4-(2-{5-[(5-chloro-1-methyl-1H-benzimidazol-2-yl)methyl]-2-cyclopentyl-4-hydroxy-6-oxo-3,6-dihydro-2H-pyran-2-yl}ethyl)-2-fluorophenyl]-2-methylpropanenitrile]	10 nM
COc1ccc(CCC2(C3CCCC3)CC(O)=C(Sc3nnc(C)n3C)C(=O)O2)cc1Cl (centres unmarked) [C(99), 6-[2-(3-chloro-4-methoxyphenyl)ethyl]-6-cyclopentyl-3-[(4,5-dimethyl-4H-1,2,4-triazol-3-yl)thio]-4-hydroxy-5,6-dihydro-2H-pyran-2-one]	79 nM
CCc1cc(CCC2(C3CCCC3)CC(O)=C(Cc3nc4nc(C)cc(C)n4n3)C(=O)O2)cc(F)c1O (centres unmarked) [A(123), 6-Cyclopentyl-3-(5,7-dimethyl-[1,2,4]triazolo[1,5-a]pyrimidin-2-ylmethyl)-6-[2-(3-ethyl-5-fluoro-4-hydroxy-phenyl)-ethyl]-4-hydroxy-5,6-dihydro-pyran-2-one]	12 nM
COc1ccc(CCC2(C3CCCC3)CC(=O)CC(=O)O2)cc1[C@@H](C)O (some centres unmarked) [B(121), 6-Cyclopentyl-6-{2-[3-(1-hydroxy-ethyl)-4-methoxy-phenyl]-ethyl}-dihydro-pyran-2,4-dione]	6000 nM
COc1ccc(CCC2(C3CCCC3)CC(O)=C(SCCc3ccccn3)C(=O)O2)cc1Cl (centres unmarked) [C(109), 6-[2-(3-Chloro-4-methoxy-phenyl)-ethyl]-6-cyclopentyl-4-hydroxy-3-(2-pyridin-2-yl-ethylsulfanyl)-5,6-dihydro-pyran-2-one]	900 nM
Cc1cc(C)n2nc(CC3=C(O)CC(CCc4ccc(OC(C)C)c(F)c4)(C4CCCC4)OC3=O)nc2n1 (single isomer, unassigned) [J(3), 6-cyclopentyl-3-[(5,7-dimethyl[1,2,4]triazolo[1,5-a]pyrimidin-2-yl)methyl]-6-[2-(3-fluoro-4-isopropoxyphenyl)ethyl]-4-hydroxy-5,6-dihydro-2H-pyran-2-one]	5 nM
O=C1CC(=O)OC(CCc2ccc(-c3cc4ccccc4s3)c(F)c2)(C2CCCC2)C1 (centres unmarked) [A(10), 6-[2-(4-Benzo[b]thiophen-2-yl-3-fluoro-phenyl)-ethyl]-6-cyclopentyl-dihydro-pyran-2,4-dione]	8100 nM
CNS(=O)(=O)c1ccc(CCC2(C3CCCC3)CC(=O)CC(=O)O2)cc1F (centres unmarked) [A(85), 4-[2-(2-Cyclopentyl-4,6-dioxo-tetrahydro-pyran-2-yl)-ethyl]-2-fluoro-methyl-benzenesulfonamide]	12400 nM
COc1ccc(CCC2(C3CCCC3)CC(O)=C(Cc3nc4ncc(C)cn4n3)C(=O)O2)c(OC)c1 (centres unmarked) [B(118), 6-Cyclopentyl-6-[2-(2,4-dimethoxy-phenyl)-ethyl]-4-hydroxy-3-(6-methyl-[1,2,4]triazolo[1,5-a]pyrimidin-2-ylmethyl)-5,6-dihydro-pyran-2-one]	200 nM
COc1cc(OC)c(CCC2(C3CCCC3)CC(O)=C(Sc3nc4nc[nH]c(=O)c4[nH]3)C(=O)O2)cc1Cl (centres unmarked) [C(70), 8-({6-[2-(5-chloro-2,4-dimethoxyphenyl)ethyl]-6-cyclopentyl-4-hydroxy-2-oxo-5,6-dihydro-2H-pyran-3-yl}thio)-1,7-dihydro-6H-purin-6-one]	7.4 nM
CCc1cccc(CCC2(C3CCCC3)CC(=O)CC(=O)O2)c1 (single isomer, unassigned) [J(5), 6-Cyclopentyl-6-[2-(3-ethyl-phenyl)-ethyl]-dihydro-pyran-2,4-dione]	1900 nM
O=C1CC(=O)OC(CCc2ccc(Cc3nccs3)c(F)c2)(C2CCCC2)C1 (centres unmarked) [A(77), 6-Cyclopentyl-6-[2-(3-fluoro-4-thiazol-2-ylmethyl-phenyl)-ethyl]-dihydro-pyran-2,4-dione]	24000 nM
Cc1cc(C)n2nc(CC3=C(O)CC(CCc4ccc(C(C)C)c(F)c4)(C4CCCC4)OC3=O)nc2n1 (centres unmarked) [B(45), 6-cyclopentyl-3-[(5,7-dimethyl[1,2,4]triazolo[1,5-a]pyrimidin-2-yl)methyl]-6-[2-(3-fluoro-4-isopropylphenyl)ethyl]-4-hydroxy-5,6-dihydro-2H-pyran-2-one]	53 nM
CCCc1cc(CCC2(C3CCCC3)CC(O)=C(Cc3nc4nc(CC)cc(CC)n4n3)C(=O)O2)ccc1O (centres unmarked) [A(137), 6-cyclopentyl-3-[(5,7-dietylphenyl)ethyl]-5,6-hyl[1,2,4]triazolo[1,5-a]pyrimidin-2-yl)methyl]-4-hydroxy-6-[2-(4-hydroxy-3-propdihydro-2H-pyran-2-one]	7 nM
Cc1cc(CCC2(C3CCCC3)CC(=O)CC(=O)O2)ccc1OC(C)C (centres unmarked) [A(04), 6-Cyclopentyl-6-[2-(4-isopropoxy-3-methyl-phenyl)-ethyl]-dihydro-pyran-2,4-dione]	5600 nM
CCc1cc(CCC2(C3CCCC3)CC(O)=C(Cc3nc4ncc(C)cn4n3)C(=O)O2)c(OC)cc1O (racemic) [A(212), 3-[(6-methyl[1,2,4]triazolo[1,5-a]pyrimidin-2-yl)methyl]-6-cyclopentyl-6-[2-(5-ethyl-4-hydroxy-2-methoxyphenyl)ethyl]-4-hydroxy-5,6-dihydro-2H-pyran-2-one]	4 nM
Cc1cc(C)n2nc(CC3=C(O)CC(CCc4ccc(C(C)(C)O)c(F)c4)(C4CCCC4)OC3=O)nc2n1 (single isomer, unassigned; enantiomer b) [A(219), 6-cyclopentyl-3-[(5,7-dimethyl[1,2,4]triazolo[1,5-a]pyrimidin-2-yl)methyl]-6-{2-[3-fluoro-4-(1-hydroxy-1-methylethyl)phenyl]ethyl}-4-hydroxy-5,6-dihydro-2H-pyran-2-one (enantiomer B)]	88 nM
COc1cc(OC)c(CCC2(C3CCCC3)CC(O)=C(Sc3n[nH]c(-c4ccccc4)n3)C(=O)O2)cc1Cl (centres unmarked) [C(71), 6-[2-(5-Chloro-2,4-dimethoxyphenyl)ethyl]-6-cyclopentyl-4-hydroxy-3-[(5-phenyl-1H-1,2,4-triazol-3-yl)thio]-5,6-dihydro-2H-pyran-2-one]	58 nM
N#CC1(c2ccc(CCC3(C4CCCC4)CC(O)=C(Cc4nc5ncc(Cl)cn5n4)C(=O)O3)cc2F)CCCC1 (centres unmarked) [A(191), 1-(4-{2-[5-(6-Chloro-[1,2,4]triazolo[1,5-a]pyrimidin-2-ylmethyl)-2-cyclopentyl-4-hydroxy-6-oxo-3,6-dihydro-2H-pyran-2-yl]-ethyl}-2-fluoro-phenyl)-cyclopentanecarbonitrile]	17 nM
CCC(CC)Oc1ccc(CCC2(C3CCCC3)CC(=O)CC(=O)O2)cc1Cl (centres unmarked) [A(83), 6-{2-[3-Chloro-4-(1-ethyl-propoxy)-phenyl]-ethyl}-6-cyclopentyl-dihydro-pyran-2,4-dione]	5400 nM
CCc1cc(CCC2(C3CCCC3)CC(=O)CC(=O)O2)ccc1F (centres unmarked) [A(65), 6-cyclopentyl-6-[2-(3-ethyl-4-fluorophenyl)ethyl]dihydro-2H-pyran-2,4(3H)-dione]	1300 nM
COc1ccc(CCC2(C3CCCC3)CC(O)=C(Sc3nnc(-c4ccncc4)o3)C(=O)O2)cc1Cl (centres unmarked) [C(104), 6-[2-(3-chloro-4-methoxyphenyl)ethyl]-6-cyclopentyl-4-hydroxy-3-[(5-pyridin-4-yl-1,3,4-oxadiazol-2-yl)thio]-5,6-dihydro-2H-pyran-2-one]	310 nM
Cn1c(CC2=C(O)CC(CCc3ccc(OCC4CC4)c(Cl)c3)(C3CCCC3)OC2=O)nc2ccccc21 (centres unmarked) [B(26), 6-[2-(3-Chloro-4-cyclopropylmethoxy-phenyl)-ethyl]-6-cyclopentyl-4-hydroxy-3-(1-methyl-1H-benzoimidazol-2-ylmethyl)-5,6-dihydro-pyran-2-one]	2300 nM
